The subject of this assay is MCF-7 breast cancer cells. Kind of assay: MTT cell growth inhibition assay in MCF-7 breast cancer cells. The format is cell-based. The settings on record: 72 hours post treatment, concentrations with respect to paclitaxel content. The procedure:
The antiproliferative capabilities of PTX-AuNPs from Example 1 were first investigated in vitro. To this end, cellular assays were performed to compare the ability of the PTX-AuNPs to inhibit cell growth relative to the parent drug. Briefly, MCF-7 breast cancer cells were treated over a range of concentrations (based on equivalent PTX content) for all samples and relative cell survival was measured 72 hours post treatment following the MTT protocol. Additionally, the paclitaxel pyruvate compound was also analyzed, as it represented the agent released from the gold surface upon degradation of the hydrazone linker. MCF-7 cells were plated in 6 well plates and allowed to proliferate until approximately 80-90% confluent. Once optimal confluency was reached, increasing concentrations of PTX-AuNPs were added to each well in order to ensure sufficient uptake for imaging (up to 100 μg/mL). Following 12 hours of incubation with PTX-AuNPs, the cells were fixed with a solution of gluteraldehyde and imaged by transmission electron microscopy (TEM). MCF-7 breast cancer cells were plated in 96-well plates at a concentration of 4,000 cells/well (100 μL/well) and allowed to attach for 24 hours. […] Upon agitating the plates for 2 minutes, absorbance values were recorded using a plate reader (Gene Mate, BioTek) equipped with a 570 nm filter.

One may read the IC50 as the concentration that gives 50% inhibition. Read a high IC50 as weaker potency. Consider `CC(=O)OC1C(=O)C2(C)C(O)CC3OCC3(OC(C)=O)C2C(OC(=O)c2ccccc2)C2(O)CC(OC(=O)C(OC(=O)C(C)=O)C(NC(=O)c3ccccc3)c3ccccc3)C(C)=C1C2(C)C` (centres unmarked) [paclitaxel pyruvate, Paclitaxel 2′ Pyruvate], for which, for the setting “MCF-7 cells”, the IC50 was 9 nM. `CC(=O)O[C@H]1C(=O)[C@@]2(C)[C@H]([C@H](OC(=O)c3ccccc3)[C@]3(O)C[C@H](OC(=O)[C@H](O)[C@@H](NC(=O)c4ccccc4)c4ccccc4)C(C)=C1C3(C)C)[C@]1(OC(C)=O)CO[C@@H]1C[C@@H]2O` [paclitaxel] came in with an IC50 (Homo sapiens, MCF7, MCF-7 cells) of approximately 4 nM.

Values taken from patent publication US9138418B2, “Therapeutic compositions and methods for delivery of active agents cleavably linked to nanoparticles” (priority 2009, dated 2015).
